Where “and” joins values, the source holds several entries; their conditions need not be identical. Equal values may be shown once.
How the values were obtained:
S. aureus CMCC(B) 26003 [1] = assay: dynamic antimicrobial analysis (OD600 growth over 10 h); type: cell-based, Staphylococcus aureus; conditions: 1/4× MIC, OD600 every hour for 10 h, 37°C, n = 3
Experimental: (§1) Therefore, the follow-up experiments involved these two bacteria, along with the three AMPs with the best antimicrobial effects (FD10, FD12, and FD15). The dynamic antimicrobial effects were analyzed by measuring the effects of the AMPs on bacterial growth over 10 h. First, 100 μL microbial solution (1.0 × 10^6 CFU/mL) was added to the wells of a 96-well culture plate, and then 100 μL AMP (at 1× and 1/4× MIC) was added and the mixtures were cultured at 37°C ([Mishra et al., 2013]; [Memariani et al., 2016]). 100 μL MHB with 100 μL microbial solution was used as the control group. The optical density at 600 nm (OD600) was measured every hour for 10 h using a microplate reader ([Hou et al., 2007]). The experiment was conducted in triplicate.

E. coli [2] = assay: agar punch method, inhibition circle; type: cell-based, Escherichia coli; conditions: 6 mm hole, 55 μL of 1 mg/mL, NA, 37°C, 16–18 h, mean ± SD, three replicates, + control given per plate group
Experimental: (§2) Staphylococcus aureus CMCC(B) 26003, B. thuringiensis, E. coli, and P. aeruginosa CMCC(B)10104 were cultured in NA medium and C. albicans CMCC(F) 98001 was cultured in SDA medium. They were incubated in a constant-temperature (bacteria: 37°C; fungi: 28°C) incubator for 16–20 h. Thereafter, single colonies were picked and incubated in 50 mL MHB at 160 rpm/min at the optimal growth temperature (bacteria: 37°C; fungi: 28°C). Microbial suspensions of 1 × 10^6 CFU/mL were then prepared ([Chen et al., 2016]).
(§3) 100 μL of 1 × 10^6 CFU/mL microbial suspension (E. coli, P. aeruginosa CMCC(B)10104, B. thuringiensis, S. aureus CMCC(B) 26003, or C. albicans CMCC(F) 98001) was evenly applied to dishes containing 20 mL NA (bacteria) or SDA (fungi). After the microbial solution solidified, six holes per dish were punched with a sterile pipette tip of 6 mm in diameter, with each hole spaced >20 mm apart and > 10 mm apart from the edge of the dish. […] Next, 55 μL of 1 mg/mL control/treatment was added to each hole and incubated in a constant-temperature (bacteria: 37°C; fungi: 28°C) incubator for 16–18 h ([Chen et al., 2016]; [Gong et al., 2022]), with three replicates for each treatment group. The diameter of the inhibition circle was measured using ImageJ software (National Institutes of Health, United States) in order to preliminarily determine whether the candidate peptides had inhibitory activity.

[3] = system: C. albicans CMCC(F) 98001; assay: agar punch method, inhibition circle; type: cell-based, Candida albicans; conditions: 6 mm hole, 55 μL of 1 mg/mL, SDA, 28°C, 16–18 h, mean ± SD, three replicates, + control given per plate group
Experimental: as §2, §3

[4] = system: mouse RAW 264.7 macrophages; assay: cytotoxicity, MTT assay; type: cell-based; conditions: at 256 μg/mL, 24 h incubation, absorbance 570 nm, n = 3
Experimental: Followed the removing of the MTT, dimethyl sulfoxide (DMSO) (150 μL/well) was added and the absorbance was measured at 570 nm. Untreated cells were used as a control. […] The cytotoxicity detection was repeated in triplicate.

S. aureus CMCC(B) 26003 [5] = assay: agar punch method, inhibition circle; type: cell-based, Staphylococcus aureus; conditions: 6 mm hole, 55 μL of 1 mg/mL, NA, 37°C, 16–18 h, mean ± SD, three replicates, + control given per plate group
Experimental: as §2, §3

[6] = system: P. aeruginosa CMCC(B)10104; assay: agar punch method, inhibition circle; type: cell-based, Pseudomonas aeruginosa; conditions: 6 mm hole, 55 μL of 1 mg/mL, NA, 37°C, 16–18 h, mean ± SD, three replicates, + control given per plate group, listed as +
Experimental: as §2, §3

E. coli [7] = assay: dynamic antimicrobial analysis (OD600 growth over 10 h); type: cell-based, Escherichia coli; conditions: 1/4× MIC, OD600 every hour for 10 h, 37°C, n = 3
Experimental: as §1

B. thuringiensis = assay: agar punch method, inhibition circle; type: cell-based, Bacillus thuringiensis; conditions: 6 mm hole, 55 μL of 1 mg/mL, NA, 37°C (Fig. S3C: 30°C), 16–18 h, mean ± SD, three replicates, + control given per plate group
Experimental: as §2, §3

CC1(C)S[C@@H]2[C@H](NC(=O)[C@H](N)c3ccccc3)C(=O)N2[C@H]1C(=O)O [ampicillin, reference compound]
time after which S. aureus CMCC(B) 26003 growth began (S. aureus CMCC(B) 26003 [1]): around 2 h
Inhibition circle diameter (mm) E. coli (E. coli [2]): 29.37 mm
Inhibition circle diameter (mm) E. coli (E. coli [2]; listed as +): 27.03 ± 0.47 mm and 27.84 ± 0.30 mm and 30.50 ± 0.21 mm and 29.37 ± 0.31 mm
Inhibition circle diameter (mm) C. albicans CMCC(F) 98001 [3]: 16.16 ± 0.51 mm and 17.74 ± 0.47 mm and 17.80 ± 0.25 mm and 19.69 ± 0.53 mm
survival rate of mouse RAW 264.7 macrophages [4]: 84.90%
Inhibition circle diameter (mm) S. aureus CMCC(B) 26003 (S. aureus CMCC(B) 26003 [5]): 19.98 mm
Inhibition circle diameter (mm) S. aureus CMCC(B) 26003 (S. aureus CMCC(B) 26003 [5]; listed as +): 14.35 ± 0.49 mm and 15.58 ± 0.58 mm and 16.02 ± 0.34 mm and 19.98 ± 0.42 mm
Inhibition circle diameter (mm) P. aeruginosa CMCC(B)10104 [6]: 15.10 ± 0.43 mm and 16.52 ± 0.55 mm and 16.99 ± 0.39 mm and 14.48 ± 0.29 mm
time after which E. coli growth began (E. coli [7]): > 1 h
Inhibition circle diameter (mm) B. thuringiensis (B. thuringiensis): 17.95 ± 0.36 mm and 13.99 ± 0.61 mm and 17.47 ± 0.19 mm and 15.97 ± 0.49 mm

From paper PMC10060639, “Prediction and bioactivity of small-molecule antimicrobial peptides from Protaetia brevitarsis Lewis larvae” (Frontiers in Microbiology, 2023)
